Results on ten compounds are retold here after patent US12440484B2, “1,3,4-oxadiazole homophthalimide derivative compounds as histone deacetylase 6 inhibitor, and the pharmaceutical composition comprising the same” (Chong Kun Dang Pharmaceutical Corp., priority 2019, dated 2025).

Each structure is given as a SMILES string. A value given as a limit tells only on which side of the number the result lay.

One test deals with HDAC6 human recombinant (Homo sapiens (Human), UniProt Q9UBN7). Briefly: HDAC enzyme activity inhibition (in vitro), HDAC6 assay. The format is biochemical. The conditions noted are these: samples at 0.1, 1, 10, 100 and 1000 nM; 37° C. 60 minutes; fluorescence Ex 390, Em 460.
Sequence of HDAC6 human recombinant (Q9UBN7 whole entry): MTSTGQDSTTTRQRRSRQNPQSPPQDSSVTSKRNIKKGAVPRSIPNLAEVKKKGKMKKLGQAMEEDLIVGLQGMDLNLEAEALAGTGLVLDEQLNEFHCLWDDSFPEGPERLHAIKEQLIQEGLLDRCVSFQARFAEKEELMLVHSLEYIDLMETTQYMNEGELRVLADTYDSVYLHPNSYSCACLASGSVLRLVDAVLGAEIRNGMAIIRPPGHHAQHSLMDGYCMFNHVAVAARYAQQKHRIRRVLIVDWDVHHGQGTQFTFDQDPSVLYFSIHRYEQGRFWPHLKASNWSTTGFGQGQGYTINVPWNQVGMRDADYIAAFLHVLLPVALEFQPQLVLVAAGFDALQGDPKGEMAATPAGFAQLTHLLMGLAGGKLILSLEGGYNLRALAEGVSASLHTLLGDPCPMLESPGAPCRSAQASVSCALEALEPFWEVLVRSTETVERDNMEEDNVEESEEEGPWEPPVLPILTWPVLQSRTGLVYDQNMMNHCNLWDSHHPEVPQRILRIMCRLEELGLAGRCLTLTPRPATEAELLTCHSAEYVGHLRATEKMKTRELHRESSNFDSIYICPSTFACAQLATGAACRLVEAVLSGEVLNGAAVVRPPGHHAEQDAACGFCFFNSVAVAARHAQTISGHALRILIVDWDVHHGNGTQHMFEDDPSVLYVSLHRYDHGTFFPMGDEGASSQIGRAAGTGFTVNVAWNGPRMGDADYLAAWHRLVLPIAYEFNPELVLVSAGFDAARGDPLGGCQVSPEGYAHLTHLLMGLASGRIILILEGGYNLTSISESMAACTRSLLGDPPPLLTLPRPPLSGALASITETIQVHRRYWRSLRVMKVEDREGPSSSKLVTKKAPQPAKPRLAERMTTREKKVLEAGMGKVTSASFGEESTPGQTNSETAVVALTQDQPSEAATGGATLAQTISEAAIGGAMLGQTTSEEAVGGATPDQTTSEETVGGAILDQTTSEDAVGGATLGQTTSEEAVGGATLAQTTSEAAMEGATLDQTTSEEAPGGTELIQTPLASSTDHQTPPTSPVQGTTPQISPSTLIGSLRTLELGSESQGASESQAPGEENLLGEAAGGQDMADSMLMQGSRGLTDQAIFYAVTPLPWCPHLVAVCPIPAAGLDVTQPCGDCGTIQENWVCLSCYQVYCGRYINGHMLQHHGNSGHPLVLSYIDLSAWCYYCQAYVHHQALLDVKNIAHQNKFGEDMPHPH
The next test addresses HDAC1 (Homo sapiens (Human), UniProt Q13547). Briefly: HDAC enzyme activity inhibition (in vitro), HDAC1 Fluorimetric Drug Discovery Assay Kit. The format is biochemical. The settings on record: samples at 100, 1000 and 10000 nM; 37° C. 60 minutes; fluorescence Ex 390, Em 460.

Sequence of HDAC1 (Q13547 whole entry): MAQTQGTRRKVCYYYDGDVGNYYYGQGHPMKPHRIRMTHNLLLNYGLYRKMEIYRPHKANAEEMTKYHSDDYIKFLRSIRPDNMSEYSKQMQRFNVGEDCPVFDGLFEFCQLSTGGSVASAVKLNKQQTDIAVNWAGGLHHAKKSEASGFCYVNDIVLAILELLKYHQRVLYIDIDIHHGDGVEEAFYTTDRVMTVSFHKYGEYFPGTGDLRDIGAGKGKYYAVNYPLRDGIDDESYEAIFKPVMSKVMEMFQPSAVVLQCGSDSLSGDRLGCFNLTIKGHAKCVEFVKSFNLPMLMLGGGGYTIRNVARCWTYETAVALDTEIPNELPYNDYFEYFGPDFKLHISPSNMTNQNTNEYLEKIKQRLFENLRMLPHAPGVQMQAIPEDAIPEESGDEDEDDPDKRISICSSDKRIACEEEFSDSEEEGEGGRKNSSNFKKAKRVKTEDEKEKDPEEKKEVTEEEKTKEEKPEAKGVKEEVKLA

On to `CC(F)(F)CN1CCN(c2ccc3c(c2)C(C)(C)C(=O)N(Cc2ccc(-c4nnc(C(F)F)o4)cn2)C3=O)CC1` [Compound 138, 2-((5-(5-(difluoromethyl)-1,3,4-oxadiazole-2-yl)pyridine-2-yl)methyl)-6-(4-(2,2-difluoropropyl)piperazine-1-yl)-4,4-dimethylisoquinoline-1,3(2H,4H)-dione], for which the IC50 at HDAC6 human recombinant is 96 nM; at HDAC1, above 10000 nM.
On the same counts, the results for `CC(C)(C)OC(=O)N1CCC(Cn2c(=O)n(Cc3ccc(-c4nnc(C(F)F)o4)cn3)c(=O)c3cc(F)ccc32)CC1` [Compound 72, Tert-butyl 4-((3-((5-(5-(difluoromethyl)-1,3,4-oxadiazole-2-yl)pyridine-2-yl)methyl)-6-fluoro-2,4-dioxo-3,4-dihydroquinazoline-1(2H)-yl)methyl)piperidine-1-carboxylate] are 310 nM and above 10000 nM.
The like results for `CCN1CCC(c2ccc3c(c2)C(C)(C)C(=O)N(Cc2ncc(-c4nnc(C(F)F)o4)cn2)C3=O)CC1` [Compound 156, 2-((5-(5-(difluoromethyl)-1,3,4-oxadiazole-2-yl)pyrimidine-2-yl)methyl)-6-(1-ethylpiperidine-4-yl)-4,4-dimethylisoquinoline-1,3(2H,4H)-dione] were, in that order, 56 nM and above 10000 nM.
The like results for `CC1(C)C(=O)N(Cc2ncc(-c3nnc(C(F)F)o3)cn2)C(=O)c2ccc(Br)cc21` [Compound 152, 6-bromo-2-((5-(5-(difluoromethyl)-1,3,4-oxadiazole-2-yl)pyrimidine-2-yl)methyl)-4,4-dimethylisoquinoline-1,3(2H,4H)-dione] were, in that order, 125 nM and above 10000 nM.
For `CC1(C)C(=O)N(Cc2ccc(-c3nnc(C(F)F)o3)cn2)C(=O)c2cc(C3CCN(C4COC4)CC3)ccc21` [Compound 55, 2-((5-(5-(difluoromethyl)-1,3,4-oxadiazole-2-yl)pyridine-2-yl)methyl)-4,4-dimethyl-7-(1-(oxetan-3-yl)piperidine-4-yl)isoquinoline-1,3(2H,4H)-dione], the half-inhibitory concentration (IC50) at HDAC6 human recombinant was 20 nM; against HDAC1 it was above 10000 nM.
The like results for `CN(C)CCCn1c(=O)n(Cc2ccc(-c3nnc(C(F)F)o3)cn2)c(=O)c2ccccc21` [Compound 19, 3-((5-(5-(difluoromethyl)-1,3,4-oxadiazole-2-yl)pyridine-2-yl)methyl)-1-(3-(dimethylamino)propyl)quinazoline-2,4(1H,3H)-dione] were, in that order, 249 nM and above 10000 nM.
Regarding `CC(=O)N1CCC(c2ccc3c(c2)C(=O)N(Cc2ccc(-c4nnc(C(F)F)o4)cn2)C(=O)C3(C)C)CC1` [Compound 127, 7-(1-acetylpiperidine-4-yl)-2-((5-(5-(difluoromethyl)-1,3,4-oxadiazole-2-yl)pyridine-2-yl)methyl)-4,4-dimethylisoquinoline-1,3(2H,4H)-dione], the figures for the IC50 at HDAC6 human recombinant and against HDAC1 were 17 nM and above 10000 nM, respectively.
The like results for `Cn1c(=O)n(Cc2ccc(-c3nnc(C(F)F)o3)cn2)c(=O)c2cc(-c3cccnc3)ccc21` [Compound 91, 3-((5-(5-(difluoromethyl)-1,3,4-oxadiazole-2-yl)pyridine-2-yl)methyl)-1-methyl-6-(pyridine-3-yl)quinazoline-2,4(1H,3H)-dione] were, in that order, 33 nM and above 10000 nM.
On the same counts, the results for `CC1(C)C(=O)N(Cc2ccc(-c3nnc(C(F)F)o3)cn2)C(=O)c2c(-c3cccnc3)cccc21` [Compound 85, 2-((5-(5-(difluoromethyl)-1,3,4-oxadiazole-2-yl)pyridine-2-yl)methyl)-4,4-dimethyl-8-(pyridine-3-yl)isoquinoline-1,3(2H,4H)-dione] are 50 nM and above 10000 nM.
On the same counts, the results for `CC1(C)C(=O)N(Cc2ccc(-c3nnc(C(F)F)o3)cn2)C(=O)c2ccc(N3CCN(C4COC4)CC3)cc21` [Compound 30, 2-((5-(5-(difluoromethyl)-1,3,4-oxadiazole-2-yl)pyridine-2-yl)methyl)-4,4-dimethyl-6-(4-(oxetan-3-yl)piperazine-1-yl)isoquinoline-1,3(2H,4H)-dione] are 46 nM and above 10000 nM.
